Measured values taken from PubChem BioAssay (NCI).
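Exposure lasted 48 hours, with cells grown in 96-well plates and compounds tested at five concentrations. TGI denotes the concentration required for complete inhibition of growth.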

Assays:
Assay in all cases: inhibition of tumour cell growth, NCI panel, 48 h
A498 renal = system: A498 renal
SF-268 CNS = system: SF-268 CNS
HOP-18 NSCLC = system: HOP-18 NSCLC
EKVX NSCLC = system: EKVX NSCLC
KM20L2 colon = system: KM20L2 colon
HCT-15 colon = system: HCT-15 colon
KM12 colon = system: KM12 colon
SNB-75 CNS = system: SNB-75 CNS
UACC-257 melanoma = system: UACC-257 melanoma
NCI-H522 lung = system: NCI-H522 lung
OVCAR-5 ovarian = system: OVCAR-5 ovarian
OVCAR-3 ovarian = system: OVCAR-3 ovarian
SK-MEL-2 melanoma = system: SK-MEL-2 melanoma
SNB-78 CNS = system: SNB-78 CNS
DLD-1 colon = system: DLD-1 colon
RXF 393 renal = system: RXF 393 renal
NCI-H460 lung = system: NCI-H460 lung
SK-MEL-28 melanoma = system: SK-MEL-28 melanoma
HCT-116 colon = system: HCT-116 colon
OVCAR-8 ovarian = system: OVCAR-8 ovarian
COLO 205 colon = system: COLO 205 colon
LOX IMVI melanoma = system: LOX IMVI melanoma
HOP-92 NSCLC = system: HOP-92 NSCLC
U251 CNS = system: U251 CNS
HCC-2998 colon = system: HCC-2998 colon
ACHN renal = system: ACHN renal
IGROV1 ovarian = system: IGROV1 ovarian
SN12C renal = system: SN12C renal
UACC-62 melanoma = system: UACC-62 melanoma
MOLT-4 leukemia = system: MOLT-4 leukemia
TK-10 renal = system: TK-10 renal
HT29 colon = system: HT29 colon
K-562 leukemia = system: K-562 leukemia
786-0 renal = system: 786-0 renal
LXFL 529 NSCLC = system: LXFL 529 NSCLC
SW-620 colon = system: SW-620 colon
SNB-19 CNS = system: SNB-19 CNS
NCI-H23 lung = system: NCI-H23 lung
OVCAR-4 ovarian = system: OVCAR-4 ovarian
M19-MEL melanoma = system: M19-MEL melanoma
SF-295 CNS = system: SF-295 CNS
A549 NSCLC = system: A549 NSCLC
SK-OV-3 ovarian = system: SK-OV-3 ovarian
UO-31 renal = system: UO-31 renal
XF 498 CNS = system: XF 498 CNS
CCRF-CEM leukemia = system: CCRF-CEM leukemia
DMS 114 small cell lung = system: DMS 114 small cell lung
NCI-H226 lung = system: NCI-H226 lung
HOP-62 NSCLC = system: HOP-62 NSCLC
M14 melanoma = system: M14 melanoma
SK-MEL-5 melanoma = system: SK-MEL-5 melanoma
SF-539 CNS = system: SF-539 CNS
MALME-3M melanoma = system: MALME-3M melanoma
DMS 273 small cell lung = system: DMS 273 small cell lung
HL-60(TB) leukemia = system: HL-60(TB) leukemia
CAKI-1 renal = system: CAKI-1 renal
RPMI-8226 leukemia = system: RPMI-8226 leukemia
SR leukemia = system: SR leukemia

C=C1CCc2occ(C)c2C2C1C1=C(CC(C)C1=O)C1OC12C (configuration not stated)
TGI (A498 renal): > 100 µM | TGI (SF-268 CNS): > 100 µM | TGI (HOP-18 NSCLC): 6.77 µM | TGI (EKVX NSCLC): > 100 µM | TGI (KM20L2 colon): > 100 µM | TGI (HCT-15 colon): > 100 µM | TGI (KM12 colon): > 100 µM | TGI (SNB-75 CNS): > 100 µM | TGI (UACC-257 melanoma): > 100 µM | TGI (NCI-H522 lung): > 100 µM | TGI (OVCAR-5 ovarian): > 100 µM | TGI (OVCAR-3 ovarian): > 100 µM | TGI (SK-MEL-2 melanoma): > 100 µM | TGI (SNB-78 CNS): > 100 µM | TGI (DLD-1 colon): > 100 µM | TGI (RXF 393 renal): > 100 µM | TGI (NCI-H460 lung): > 100 µM | TGI (SK-MEL-28 melanoma): > 100 µM | TGI (HCT-116 colon): > 100 µM | TGI (OVCAR-8 ovarian): > 100 µM | TGI (COLO 205 colon): > 100 µM | TGI (LOX IMVI melanoma): > 100 µM | TGI (HOP-92 NSCLC): > 100 µM | TGI (U251 CNS): > 100 µM | TGI (HCC-2998 colon): > 100 µM | TGI (ACHN renal): > 100 µM | TGI (IGROV1 ovarian): > 100 µM | TGI (SN12C renal): > 100 µM | TGI (UACC-62 melanoma): > 100 µM | TGI (MOLT-4 leukemia): > 100 µM | TGI (TK-10 renal): > 100 µM | TGI (HT29 colon): > 100 µM | TGI (K-562 leukemia): > 100 µM | TGI (786-0 renal): > 100 µM | TGI (LXFL 529 NSCLC): > 100 µM | TGI (SW-620 colon): > 100 µM | TGI (SNB-19 CNS): > 100 µM | TGI (NCI-H23 lung): > 100 µM | TGI (OVCAR-4 ovarian): > 100 µM | TGI (M19-MEL melanoma): > 100 µM | TGI (SF-295 CNS): > 100 µM | TGI (A549 NSCLC): > 100 µM | TGI (SK-OV-3 ovarian): > 100 µM | TGI (UO-31 renal): > 100 µM | TGI (XF 498 CNS): > 100 µM | TGI (CCRF-CEM leukemia): > 100 µM | TGI (DMS 114 small cell lung): > 100 µM | TGI (NCI-H226 lung): > 100 µM | TGI (HOP-62 NSCLC): > 100 µM | TGI (M14 melanoma): > 100 µM | TGI (SK-MEL-5 melanoma): > 100 µM | TGI (SF-539 CNS): > 100 µM | TGI (MALME-3M melanoma): > 100 µM

C[C@@H](NC1CCC[C@H]1O)c1ccccc1 (some centres not stated)
TGI (HOP-18 NSCLC): > 100 µM | TGI (EKVX NSCLC): > 100 µM | TGI (DMS 273 small cell lung): > 100 µM | TGI (KM20L2 colon): > 100 µM | TGI (HCT-15 colon): > 100 µM | TGI (KM12 colon): > 100 µM | TGI (SNB-75 CNS): > 100 µM | TGI (HL-60(TB) leukemia): > 100 µM | TGI (UACC-257 melanoma): > 100 µM | TGI (OVCAR-5 ovarian): > 100 µM | TGI (OVCAR-3 ovarian): > 100 µM | TGI (SK-MEL-2 melanoma): > 100 µM | TGI (SNB-78 CNS): > 100 µM | TGI (DLD-1 colon): > 100 µM | TGI (RXF 393 renal): > 100 µM | TGI (CAKI-1 renal): > 100 µM | TGI (NCI-H460 lung): > 100 µM | TGI (SK-MEL-28 melanoma): > 100 µM | TGI (HCT-116 colon): > 100 µM | TGI (OVCAR-8 ovarian): > 100 µM | TGI (COLO 205 colon): > 100 µM | TGI (LOX IMVI melanoma): > 100 µM | TGI (HOP-92 NSCLC): > 100 µM | TGI (U251 CNS): > 100 µM | TGI (HCC-2998 colon): > 100 µM | TGI (ACHN renal): > 100 µM | TGI (IGROV1 ovarian): > 100 µM | TGI (SN12C renal): > 100 µM | TGI (UACC-62 melanoma): > 100 µM | TGI (MOLT-4 leukemia): > 100 µM | TGI (TK-10 renal): > 100 µM | TGI (HT29 colon): > 100 µM | TGI (K-562 leukemia): > 100 µM | TGI (786-0 renal): > 100 µM | TGI (LXFL 529 NSCLC): > 100 µM | TGI (SW-620 colon): > 100 µM | TGI (SNB-19 CNS): > 100 µM | TGI (OVCAR-4 ovarian): > 100 µM | TGI (RPMI-8226 leukemia): > 100 µM | TGI (M19-MEL melanoma): > 100 µM | TGI (SF-295 CNS): > 100 µM | TGI (A549 NSCLC): > 100 µM | TGI (SK-OV-3 ovarian): > 100 µM | TGI (UO-31 renal): > 100 µM | TGI (XF 498 CNS): > 100 µM | TGI (CCRF-CEM leukemia): > 100 µM | TGI (DMS 114 small cell lung): > 100 µM | TGI (NCI-H226 lung): > 100 µM | TGI (HOP-62 NSCLC): > 100 µM | TGI (M14 melanoma): > 100 µM | TGI (SK-MEL-5 melanoma): > 100 µM | TGI (MALME-3M melanoma): > 100 µM

COc1cc([C@@H]2c3cc4c(cc3[C@@H](OC(=O)c3ccccc3)C3COC(=O)[C@@H]32)OCO4)cc(OC)c1O (some centres not stated)
TGI (SF-268 CNS): > 100 µM | TGI (HOP-18 NSCLC): > 100 µM | TGI (DMS 273 small cell lung): > 100 µM | TGI (SNB-75 CNS): 36.8 µM | TGI (HL-60(TB) leukemia): 15.4 µM | TGI (OVCAR-5 ovarian): > 100 µM | TGI (CAKI-1 renal): 79.2 µM | TGI (NCI-H460 lung): 20.9 µM | TGI (SK-MEL-28 melanoma): > 100 µM | TGI (OVCAR-8 ovarian): > 100 µM | TGI (COLO 205 colon): 0.963 µM | TGI (LOX IMVI melanoma): 84.5 µM | TGI (HCC-2998 colon): > 100 µM | TGI (ACHN renal): 18.4 µM | TGI (SN12C renal): 26.9 µM | TGI (MOLT-4 leukemia): 41.4 µM | TGI (TK-10 renal): > 100 µM | TGI (K-562 leukemia): > 100 µM | TGI (786-0 renal): 45.5 µM | TGI (LXFL 529 NSCLC): > 100 µM | TGI (SW-620 colon): > 100 µM | TGI (NCI-H23 lung): 0.0642 µM | TGI (OVCAR-4 ovarian): > 100 µM | TGI (RPMI-8226 leukemia): 44 µM | TGI (M19-MEL melanoma): 69 µM | TGI (SF-295 CNS): > 100 µM | TGI (A549 NSCLC): 35.6 µM | TGI (SK-OV-3 ovarian): > 100 µM | TGI (UO-31 renal): 33.5 µM | TGI (CCRF-CEM leukemia): > 100 µM | TGI (DMS 114 small cell lung): 0.0229 µM | TGI (HOP-62 NSCLC): 28.7 µM | TGI (MALME-3M melanoma): 29.9 µM

C1CCOC2(CCC3(CC2)OCCCCO3)OC1
TGI (A498 renal): > 100 µM | TGI (SF-268 CNS): > 100 µM | TGI (HOP-18 NSCLC): > 100 µM | TGI (DMS 273 small cell lung): > 100 µM | TGI (KM20L2 colon): > 100 µM | TGI (HCT-15 colon): > 100 µM | TGI (KM12 colon): > 100 µM | TGI (SNB-75 CNS): > 100 µM | TGI (HL-60(TB) leukemia): > 100 µM | TGI (UACC-257 melanoma): > 100 µM | TGI (NCI-H522 lung): > 100 µM | TGI (SK-MEL-2 melanoma): > 100 µM | TGI (SNB-78 CNS): > 100 µM | TGI (DLD-1 colon): > 100 µM | TGI (SR leukemia): > 100 µM | TGI (RXF 393 renal): > 100 µM | TGI (CAKI-1 renal): > 100 µM | TGI (NCI-H460 lung): > 100 µM | TGI (SK-MEL-28 melanoma): > 100 µM | TGI (HCT-116 colon): > 100 µM | TGI (OVCAR-8 ovarian): > 100 µM | TGI (COLO 205 colon): > 100 µM | TGI (U251 CNS): > 100 µM | TGI (HCC-2998 colon): > 100 µM | TGI (ACHN renal): > 100 µM | TGI (IGROV1 ovarian): > 100 µM | TGI (SN12C renal): > 100 µM | TGI (UACC-62 melanoma): > 100 µM | TGI (MOLT-4 leukemia): > 100 µM | TGI (TK-10 renal): > 100 µM | TGI (K-562 leukemia): > 100 µM | TGI (786-0 renal): > 100 µM | TGI (LXFL 529 NSCLC): > 100 µM | TGI (SW-620 colon): > 100 µM | TGI (SNB-19 CNS): > 100 µM | TGI (OVCAR-4 ovarian): > 100 µM | TGI (RPMI-8226 leukemia): > 100 µM | TGI (M19-MEL melanoma): > 100 µM | TGI (A549 NSCLC): > 100 µM | TGI (SK-OV-3 ovarian): > 100 µM | TGI (UO-31 renal): > 100 µM | TGI (CCRF-CEM leukemia): > 100 µM | TGI (DMS 114 small cell lung): > 100 µM | TGI (NCI-H226 lung): > 100 µM | TGI (HOP-62 NSCLC): > 100 µM | TGI (M14 melanoma): > 100 µM | TGI (SK-MEL-5 melanoma): > 100 µM | TGI (SF-539 CNS): > 100 µM | TGI (MALME-3M melanoma): > 100 µM
